Experimental data from ChEMBL document CHEMBL5506024, “Multitarget μ-Opioid Receptor Agonists─Neuropeptide FF Receptor Antagonists Induce Potent Antinociception with Reduced Adverse Side Effects” (J Med Chem, 2024).
Activity calls are given as the source filed them. Numbered stars: 1 amine (or outer) side, 2 acyl side, 3 side chain; on linkers, the order of the positions; unused ones are H or OH. Square brackets hold non-standard residues; d marks the D form. Peptide text beside a SMILES is read from it. * marks the point of attachment. Nva(5-(4-Bn-piperidin-1-yl)) = N[C@@H](CCCN1CCC(Cc2ccccc2)CC1)C(=O)O; X2 = O=C1[C@@H](N[*:1])Cc2ccccc2CN1CCCC(=O)[*:2]; X1 = O=C1[C@@H](N[*:1])Cc2ccccc2CN1CCC(=O)[*:2]; Dmt = Cc1cc(O)cc(C)c1C[C@H](N)C(=O)O; Nicotinoyl = O=C(c1cccnc1)*; dOrn = NCCC[C@@H](N)C(=O)O; dNMeA = CN[C@H](C)C(=O)O

How the values were obtained:
[1] = molecular target: T1, Neuropeptide FF receptor 1 (Homo sapiens, UniProt Q9GZQ6); assay: Displacement of [125I]-1DMeNPFF from human NPFFR1 expressed in CHO cell membrane at 0.5 uM incubated for 1 hr by Topcount counting method relative to control; assay type: cell membranes
[2] = molecular target: T2, Neuropeptide FF receptor 2 (Homo sapiens, UniProt Q9Y5X5); assay: Antagonist activity at human NPFFR2 expressed in CHO cell membrane assessed as inhibition of NPVF induced cAMP response at 5 uM incubated for 1 hr by Topcount counting method relative to control; assay type: functional, cell membranes; parameters: scale not given: the % may be the effect or the level left
Mu-type opioid receptor [3] = molecular target: T3, Mu-type opioid receptor (Homo sapiens, UniProt P35372); assay: Agonist activity at human Rluc8-tagged MOP expressed in HEK293 cells coexpressing eYFP-tagged beta-arrestin-2 assessed as beta-arrestin-2 recruitment incubated for 5 mins by luminometer analysis; assay type: functional, cell-based
Mu-type opioid receptor [4] = molecular target: T3, Mu-type opioid receptor; assay: Agonist activity at human MOP expressed in HEK293 cells coexpressing GloSensor-20F assessed as inhibition of forskolin-induced cAMP accumulation; assay type: functional, cell-based
Mu-type opioid receptor [5] = molecular target: T3, Mu-type opioid receptor; assay: Agonist activity at human MOP expressed in HEK293 cells coexpressing GloSensor-20F assessed as inhibition of forskolin-induced cAMP accumulation relative to control; assay type: functional, cell-based; conditions: filed as agonist
[6] = molecular target: T2, Neuropeptide FF receptor 2; assay: Displacement of [125I]-1DMeNPFF from human NPFFR2 expressed in CHO cell membrane at 0.05 uM incubated for 1 hr by Topcount counting method relative to control; assay type: cell membranes; conditions: filed as antagonist
[7] = molecular target: T1, Neuropeptide FF receptor 1; assay: Antagonist activity at human NPFFR1 expressed in CHO cell membrane assessed as inhibition of NPVF induced cAMP response at 5 uM incubated for 1 hr by Topcount counting method relative to control; assay type: functional, cell membranes; parameters: scale not given: the % may be the effect or the level left
Mu-type opioid receptor [8] = molecular target: T3, Mu-type opioid receptor; assay: Agonist activity at human Rluc8-tagged MOP expressed in HEK293 cells coexpressing eYFP-tagged beta-arrestin-2 assessed as beta-arrestin-2 recruitment incubated for 5 mins by luminometer analysis relative to control; assay type: functional, cell-based
[9] = Induction of naltrexone-precipitated withdrawal syndrome in sc dosed C57BL/6N mouse assessed as vegetative signs administered for 8 days followed by naltrexone addition on day 9 after 2 hrs post last dose and measured after 30 mins; assay type: toxicity, organism-based; conditions: in vivo, 216.5 h, time 12990 min
Mus musculus [10] = assay: Antinociceptive activity in mouse at 10 mg/kg, sc administered daily and measured on day 8; assay type: functional, organism-based
[11] = Induction of naltrexone-precipitated withdrawal syndrome in sc dosed C57BL/6N mouse assessed as somatic signs administered for 8 days followed by naltrexone addition on day 9 after 2 hrs post last dose and measured after 30 mins; assay type: toxicity, organism-based; conditions: in vivo, 216.5 h, time 12990 min
[12] = Toxicity in sc dosed C57BL/6N mouse assessed as induction of respiratory depression by measuring decrease in pulmonary rate by plethysmography; assay type: organism-based; conditions: in vivo
Mus musculus [13] = assay: Antinociceptive activity in mouse assessed as basal nociceptive threshold at 10 mg/kg, sc administered daily and measured on day 2 to 7; assay type: functional, organism-based
[14] = molecular target: Nociceptin receptor (Homo sapiens) (UniProt P41146); assay: Antagonist activity at human NOR expressed in HEK293 cells assessed as forskolin-induced cAMP accumulation in presence of IBMX; assay type: functional, cell-based; conditions: filed as antagonist
[15] = Induction of naltrexone-precipitated withdrawal syndrome in sc dosed C57BL/6N mouse assessed as wet dog shake counts administered for 8 days followed by naltrexone addition on day 9 after 2 hrs post last dose and measured after 30 mins; assay type: toxicity, organism-based; conditions: in vivo, 216.5 h, time 12990 min
[16] = Induction of naltrexone-precipitated withdrawal syndrome in sc dosed C57BL/6N mouse assessed as paw tremor administered for 8 days followed by naltrexone addition on day 9 after 2 hrs post last dose and measured after 30 mins; assay type: toxicity, organism-based; conditions: in vivo, 216.5 h, time 12990 min
[17] = Tmax in mouse at 10 mg/kg, sc measured upto 24 hrs by LC-MS/MS analysis; assay type: ADME, organism-based; conditions: in vivo
[18] = Drug concentration in mouse plasma at 10 mg/kg, sc measured after 2 hrs by LC-MS/MS analysis; assay type: ADME, organism-based
[19] = Cmax in mouse at 10 mg/kg, sc measured upto 24 hrs by LC-MS/MS analysis; assay type: ADME, organism-based; conditions: in vivo
Mus musculus [20] = assay: Antinociceptive activity in mouse at 4.2 umol/kg, sc administered chronically and measured on day 1; assay type: functional, organism-based; conditions: dose 4.2 µmol/kg
Mus musculus [21] = assay: Antinociceptive activity in mouse at 4.2 umol/kg, sc administered chronically and measured on day 8; assay type: functional, organism-based; conditions: dose 4.2 µmol/kg
[22] = molecular target: Kappa-type opioid receptor (Homo sapiens, UniProt P41145); assay: Antagonist activity at human KOR expressed in HEK293 cells assessed as forskolin-induced cAMP accumulation in presence of IBMX; assay type: functional, cell-based; conditions: filed as antagonist
[23] = Half life in mouse at 10 mg/kg, sc measured upto 24 hrs by LC-MS/MS analysis; assay type: ADME, organism-based; conditions: in vivo
Mus musculus [24] = assay: Antinociceptive activity in mouse at 4.2 umol/kg, sc administered daily and measured on day 1 and 8; assay type: functional, organism-based; conditions: dose 4.2 µmol/kg

T3 sequence (P35372 whole entry): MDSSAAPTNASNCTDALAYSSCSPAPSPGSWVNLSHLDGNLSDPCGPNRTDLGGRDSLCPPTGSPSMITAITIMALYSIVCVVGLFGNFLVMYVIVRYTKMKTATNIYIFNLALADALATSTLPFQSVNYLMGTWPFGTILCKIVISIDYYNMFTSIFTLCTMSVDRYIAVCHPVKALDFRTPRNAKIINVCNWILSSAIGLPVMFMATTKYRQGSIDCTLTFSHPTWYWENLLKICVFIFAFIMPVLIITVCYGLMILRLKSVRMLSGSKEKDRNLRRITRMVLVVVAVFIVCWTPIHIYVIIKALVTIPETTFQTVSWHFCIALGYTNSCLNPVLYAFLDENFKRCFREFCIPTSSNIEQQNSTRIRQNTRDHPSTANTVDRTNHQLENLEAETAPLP
T1 sequence (Q9GZQ6 whole entry): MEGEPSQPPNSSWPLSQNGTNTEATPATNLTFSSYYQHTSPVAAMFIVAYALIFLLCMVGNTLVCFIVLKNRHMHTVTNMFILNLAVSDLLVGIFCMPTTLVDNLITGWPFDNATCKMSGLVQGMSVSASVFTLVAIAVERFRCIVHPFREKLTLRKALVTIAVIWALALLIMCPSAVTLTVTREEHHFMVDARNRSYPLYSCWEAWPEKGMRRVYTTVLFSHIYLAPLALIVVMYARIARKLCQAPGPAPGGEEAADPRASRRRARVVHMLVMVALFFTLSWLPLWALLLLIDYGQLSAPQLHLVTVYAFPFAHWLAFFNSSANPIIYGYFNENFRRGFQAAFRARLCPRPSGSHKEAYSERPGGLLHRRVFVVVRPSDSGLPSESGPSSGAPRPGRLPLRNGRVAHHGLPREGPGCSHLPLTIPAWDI
T2 sequence (Q9Y5X5 whole entry): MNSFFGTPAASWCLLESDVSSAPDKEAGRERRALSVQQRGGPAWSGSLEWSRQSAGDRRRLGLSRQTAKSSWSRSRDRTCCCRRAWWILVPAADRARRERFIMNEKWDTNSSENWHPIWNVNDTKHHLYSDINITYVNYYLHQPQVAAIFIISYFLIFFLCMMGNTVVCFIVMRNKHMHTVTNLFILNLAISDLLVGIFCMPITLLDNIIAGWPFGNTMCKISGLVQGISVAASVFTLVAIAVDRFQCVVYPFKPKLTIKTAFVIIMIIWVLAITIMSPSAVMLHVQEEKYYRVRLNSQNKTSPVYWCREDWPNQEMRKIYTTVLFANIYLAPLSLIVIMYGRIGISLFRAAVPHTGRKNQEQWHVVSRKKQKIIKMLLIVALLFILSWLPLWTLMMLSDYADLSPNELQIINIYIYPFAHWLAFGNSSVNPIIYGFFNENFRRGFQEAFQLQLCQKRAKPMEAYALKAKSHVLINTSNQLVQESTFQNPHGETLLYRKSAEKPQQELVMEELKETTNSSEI
Chain of Kappa-type opioid receptor (P41145 whole entry): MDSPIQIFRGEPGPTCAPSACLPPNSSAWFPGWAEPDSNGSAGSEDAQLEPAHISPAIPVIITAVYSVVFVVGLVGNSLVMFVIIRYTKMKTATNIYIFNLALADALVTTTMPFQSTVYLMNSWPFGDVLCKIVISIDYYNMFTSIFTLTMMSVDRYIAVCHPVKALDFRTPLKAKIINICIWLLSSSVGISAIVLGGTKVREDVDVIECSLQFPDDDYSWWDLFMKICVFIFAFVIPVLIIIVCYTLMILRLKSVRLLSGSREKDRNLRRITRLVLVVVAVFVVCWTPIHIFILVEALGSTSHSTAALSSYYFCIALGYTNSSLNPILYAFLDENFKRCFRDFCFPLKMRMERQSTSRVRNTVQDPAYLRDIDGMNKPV
Chain of Nociceptin receptor (Homo sapiens) (P41146 whole entry): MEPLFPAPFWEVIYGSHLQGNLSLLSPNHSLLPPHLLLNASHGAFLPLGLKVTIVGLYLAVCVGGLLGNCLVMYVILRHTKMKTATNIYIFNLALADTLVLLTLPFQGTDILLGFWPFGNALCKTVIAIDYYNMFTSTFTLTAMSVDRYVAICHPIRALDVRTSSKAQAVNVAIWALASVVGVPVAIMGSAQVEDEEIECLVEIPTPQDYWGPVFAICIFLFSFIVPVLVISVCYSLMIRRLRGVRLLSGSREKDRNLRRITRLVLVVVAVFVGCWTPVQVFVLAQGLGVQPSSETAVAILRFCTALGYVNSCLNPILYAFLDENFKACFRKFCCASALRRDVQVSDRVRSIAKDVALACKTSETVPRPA

Structure (SMILES)	Activity ([1]; filed as antagonist) [%]	Activity ([2]; filed as antagonist) [%]	EC50 (Mu-type opioid receptor [4]) [nM]	Emax (Mu-type opioid receptor [5]) [%]	Activity [6] [%]	Activity ([7]; filed as antagonist) [%]	Emax (Mu-type opioid receptor [8]) [%]	Activity [7] [%]	EC50 (Mu-type opioid receptor [3]; read-out: EC50) [nM]	further results
Cc1cc(O)cc(C)c1C[C@H](N)C(=O)N[C@H](CCCNC(=N)N)C(=O)N[C@H]1Cc2c(ccc3ccccc23)CN(CC(=O)N[C@@H](CCCN2CCC(Cc3ccccc3)CC2)C(=O)N[C@@H](Cc2c[nH]c3ccccc23)C(N)=O)C1=O	68	83	10.5	65	84	62	–	–	–	EC50 (Mu-type opioid receptor [3]; hek293): Not Active
Cc1cc(O)cc(C)c1C[C@H](N)C(=O)N(C)[C@H](C)C(=O)N[C@H]1Cc2ccccc2CN(CCC(=O)N[C@@H](CCCN2CCC(Cc3ccccc3)CC2)C(=O)N[C@@H](Cc2ccccc2)C(N)=O)C1=O (H-[Dmt][dNMeA][X1][Nva(5-(4-Bn-piperidin-1-yl))]F-NH2)	43	45	–	64	48	75	12	–	–	–
Cc1cc(O)cc(C)c1C[C@H](N)C(=O)N[C@H](CCCNC(=N)N)C(=O)N[C@H]1Cc2c(ccc3ccccc23)CN(CC(=O)N[C@@H](CCCN2CCC(Cc3ccccc3)CC2)C(=O)N[C@H](C(N)=O)C(C)C)C1=O	87	77	–	102	77	51	22	–	–	–
Cc1cc(O)cc(C)c1C[C@H](N)C(=O)N[C@H](CCCNC(=N)N)C(=O)N[C@H]1Cc2c(ccc3ccccc23)CN(CC(=O)N[C@@H](CCCN2CCC(Cc3ccccc3)CC2)C(=O)N[C@@H](Cc2ccccc2)C(N)=O)C1=O	–	91	–	90	96	–	22	22	–	Activity [1]: 35%
Cc1cc(O)cc(C)c1C[C@H](N)C(=O)N[C@H](CCCCNC(=O)c1cccnc1)C(=O)N[C@H]1Cc2ccccc2CN(CCC(=O)N[C@@H](CCCN2CCC(Cc3ccccc3)CC2)C(=O)N[C@@H](Cc2ccccc2)C(N)=O)C1=O (H-[Dmt][dK](Nicotinoyl)[X1][Nva(5-(4-Bn-piperidin-1-yl))]F-NH2)	74	59	–	92	70	–	16	33	12	–
COc1ccsc1CNCC[C@@]1(c2ccccn2)CCOC2(CCCC2)C1 [OLICERIDINE]	–	–	–	–	–	–	–	–	–	Activity [9]: Toxic; Activity (Mus musculus [10]): inactive; Activity [11]: Toxic; Activity [12]: Dose-Dependent Effect; Activity (Mus musculus [13]): inactive
Cc1cc(O)cc(C)c1C[C@H](N)C(=O)N[C@H](CCCN)C(=O)N[C@H]1Cc2ccccc2CN(CCC(=O)N[C@@H](CCCN2CCC(Cc3ccccc3)CC2)C(=O)N[C@@H](Cc2ccccc2)C(N)=O)C1=O (H-[Dmt][dOrn][X1][Nva(5-(4-Bn-piperidin-1-yl))]F-NH2)	45	–	34	78	55	–	20	22	2350	Activity [2]: 37%
Cc1cc(O)cc(C)c1C[C@H](N)C(=O)N[C@H](CCCNC(=N)N)C(=O)N[C@H]1Cc2ccccc2CN(CCC(=O)N[C@@H](CCCN2CCC(Cc3ccccc3)CC2)C(=O)N[C@@H](Cc2ccccc2)C(N)=O)C1=O	80	54	9.3	91	83	62	–	–	125	Activity [14]: Active; Activity [15]: Non-Toxic; Activity [16]: Non-Toxic; Tmax [17]: 2.67 h; concentration at 2 h [18]: 937 nM; Cmax [19]: 984 nM; Activity (Mus musculus [20]): Active; Activity (Mus musculus [21]): inactive; Emax (Mu-type opioid receptor [8]; filed as agonist): 42%; Activity [22]: Active; half-life [23]: 3.08 h; Activity (Mus musculus [24]): Active
Cc1cc(O)cc(C)c1C[C@H](N)C(=O)N(C)[C@H](C)C(=O)N[C@H]1Cc2ccccc2CN(CCCC(=O)N[C@@H](CCCN2CCC(Cc3ccccc3)CC2)C(=O)N[C@@H](Cc2ccccc2)C(N)=O)C1=O (H-[Dmt][dNMeA][X2][Nva(5-(4-Bn-piperidin-1-yl))]F-NH2)	57	49	10.6	66	65	–	–	12	–	EC50 (Mu-type opioid receptor [3]; hek293): Not Active
